Measured values reported in patent US7906488B2, “Sphingolipids in treatment and prevention of steatosis and of steatosis or of hepatotoxicity and its sequelae” (Nederlandse Organisatie Voor …, priority 2004, dated 2011).

Legend:
APOE3*Leiden (E3L) mice = experiment: High fat high cholesterol diet feeding for 16 weeks (Example 1); assay type: in vivo
Method: Forty-five female heterozygous APOE3*Leiden […]) mice were fed a high fat and high cholesterol diet for four weeks (week -4 to 0). The mice were housed during the experiment in clean-conventional animal rooms (relative humidity 50-60%, temperature 21° C., light cycle 6 am to 6 pm). Mice were supplied with food and acidified tap water ad libitum. At week 0, the mice were randomized on the basis of plasma total triglyceride and cholesterol levels into a control group of fifteen mice and two treatment groups of fifteen mice. The groups were: • 1. high fat, high cholesterol diet only • 2. high fat, high cholesterol diet plus 0.7% (w/w) phytosphingosine • 3. high fat, 'high' cholesterol diet with a reduced cholesterol content, resulting in about the same plasma cholesterol level as was obtained in group 2. The treatment was continued for 16 weeks. During the treatment period, tail blood samples were obtained at week 0, 2, 4, 8, 12, and 16 to measure plasma cholesterol and triglyceride levels and to determine plasma lipoprotein composition. After sixteen weeks, mice were autopsied, liver weight was determined. Body weight and food consumption were determined every four weeks Dietary ingredients were provided by Hope Farms (Woerden, the Netherlands). For group 1 (high cholesterol), the hypercholesterolemic Western-type diet (W-diet) described by Nishina et al (J. Lipid Res. 1990; 31:859) was supplemented with cholesterol (0.5% w/w, final concentration) and with sodium cholate (0.05% w/w, final concentration). This powdered Western-type diet was mixed with 2% agar and freeze-dried as pellets. The diet for group 2 (treatment group) was prepared by the addition of 0.7% (w/w) phytosphingosine to the same powdered Western-type diet (i.e. also supplemented with cholesterol (0.5% w/w, final concentration) and sodium cholate (0.05% w/w, final concentration)). The supplemented diet mixture was mixed with 2% agar and freeze-dried as pellets. The diet W for group 3 (low cholesterol) contained 0.1% cholesterol, and 0.05% sodium cholate (w/w, final concentration). This powdered Western-type diet was mixed with 2% agar and freeze-dried as pellets. The diets were prepared every eight weeks, and stored in the dark at -20° C. Food was given ad libitum. Total cholesterol was measured using the kit Chol R1 from Roche. Total triglycerides were measured using the kit Triglycerides GPO-PAP from Roche. ALAT was measured by dry chemistry on a Reflotron (Roche).

APOE*3Leiden mice [1] = experiment: In vivo clearance of VLDL-like TG-rich emulsion particles; details: 1% PS diet
Method: (§1) Plasma parameters: Tail blood samples were collected in EDTA-coated cups, or in paraoxon-coated capillaries to prevent lipolysis as described in Zambon et al. 1993 (Zambon et al. 1993. J. Lipid Res. 34:1021-1028). Plasma lipid parameters were determined using commercial kits for total cholesterol (C) Chol R1 from Roche Diagnostics, Mannheim, Germany), non-esterified free fatty acids (FFA) (NEFA-C; Wako chemicals, Neuss, Germany), Total triglycerides (TG) (Triglyceride GPO-Trinder; Sigma, St. Louis, Mo.), β-hydroxybutyrate (β-HB; Sigma) and ALAT (Reflotron GPT; Roche). Serum amyloid A (SAA) was measured by ELISA (Biosource, Nivelles, Belgium) and fibrinogen by sandwich ELISA, as described in Koopman et al., 2005 (Koopman et al. 2005. Fibrinol Proteol 11:19). For lipoproteins fractionation, groupwise-pooled plasma was size-fractionated by fast protein liquid chromatography (FPLC) on a Superose 6 column (Äkta; Amersham Pharmacia Biotech, Uppsala, Sweden). Fractions were assayed for total C and TG as described. Hepatic VLDL-TG production: The rate of hepatic VLDL-TG production, de novo apoB secretion, and VLDL composition were determined in overnight-fasted mice. Mice were anaesthetized with vetranquil/fentanyl/midazolam i.p., and injected i.v. with 0.1 ml PBS containing 100 μCi Tran^35S-label™ (ICN Biomedicals, Irvine, Calif.) to measure the de novo apoB synthesis. After 30 min, the animals received a Triton WR1339 injection (Tyloxapol, Sigma; 500 mg/kg body weight in 100 μl saline) to prevent systemic lipolysis of newly-secreted hepatic VLDL-TG (Aalto-Setala et al. 1992. J. Clin. Invest 90:1889-1900.27) Blood samples were drawn at 0, 15, 30, 60, and 90 min after Triton WR1339 injection and plasma TG concentrations were determined. After 90 min, the animals were sacrificed and blood was collected by retro-orbital bleeding for isolation of VLDL. VLDL composition: VLDL particles (d<1.019) were separated from other lipoproteins in plasma by density gradient ultra-centrifugation, as described in Jong et al., 1996 (Jong et al. 1996. Arterioscler. Thromb. Vasc. Biol. 16:934-940). Protein content of the VLDL fraction was determined by Lowry's assay (Lowry et al., 1951. J. Biol. Chem. 193:265-275), and TG and total C were determined as described above. Phospholipids and free cholesterol were determined using standard commercial kits (Wako Chemicals, Neuss, Germany). The ^35S-apoB content of VLDL was measured after selective precipitation of apoB with isopropanol as described elsewhere (Li et al. 1996 J. Lipid Res. 37:210-220; Pietzsch et al. 1995. Biochim. Biophys. Acta 1254:77-88). In vivo clearance of VLDL-like TG-rich particles: To determine whether 1% PS accelerates the clearance of TG-rich lipoproteins from plasma, we used radiolabeled emulsion particles as a tool. VLDL-like emulsion particles containing 200 μCi of [^3H]triolein and 20 μCi of [^14C]cholesteryl oleate were prepared and characterized as described in Rensen et al. 1997 (Rensen et al., 1997. J. Lipid Res. 38:1070-1084). Fed mice were anaesthetized as described above and laparotomy was performed. […] After taking the last liver and blood sample, the remainder of the liver, heart, spleen, hind limb muscle, and gonadal, perirenal and intestinal white adipose tissues were harvested. Lipids were extracted overnight at 60° C. in 500 μL of Solvable™, and radioactivity was counted as described in Rensen et al., 1997 (supra). […]

APOE*3Leiden mice [2] = experiment: Plasma ALAT, SAA and fibrinogen (plasma inflammation markers); assay type: in vivo; details: 1% PS diet
Method: as §1, with “(supra). RNA isolation and RT-PCR: Livers from 4 h-fasted mice fed 1% PS-containing diet or control Western-type diet for 5 weeks were removed immediately after sacrifice, flushed with cold 0.9% NaCl and snap frozen in liquid nitrogen. Total RNA was isolated as described by Chomczynski and Sacchi (Chomczynski, P. and Sacchi, N. 1987. Anal. Biochem. 162:156-159) by use of RNA-Bee™ (Campro Scientific, Berlin, Germany). cDNA synthesis was performed according to Bloks et al (Bloks et al., 2001. J. Lipid Res. 42:41-50).” for “(supra).”

[3] = week 16, 0.7% (w/w) phytosphingosine in high fat, high cholesterol diet
[4] = week 16, 0.7% phytosphingosine, p<0.001

## CCCCCCCCCCCCCC[C@@H](O)[C@@H](O)[C@@H](N)CO [PS, phytosphingosine]
APOE3*Leiden (E3L) mice; 0.7% phytosphingosine, 16 weeks
  Body weight and food intake between the three groups: did not differ
APOE3*Leiden (E3L) mice; [3]
  Final mean body weight: 22.1 gram
  Final mean liver weight: 1.34 gram
  Final mean plasma ALAT values: 82 U/L
APOE3*Leiden (E3L) mice; [4]
  ALAT compared with high cholesterol group: significantly lower
  Liver weight compared with high cholesterol group 1: significantly lower
APOE*3Leiden mice [1]
  Uptake of [^14C]cholesteryl oleate or [^3H]TG-derived radioactivity by peripheral muscle and adipose tissues: No effects
APOE*3Leiden mice [1]; 5 weeks, fed mice
  Plasma clearance of [^14C]cholesteryl oleate, t1/2: 39.5 ± 5.3 min
  Serum clearance of [^3H]TG, t1/2: 4.7 ± 0.3 min
APOE*3Leiden mice [1]; at 10 min and 20 min after injection
  [^3H]TG uptake in the liver: increased significantly
APOE*3Leiden mice [1]; at 20 min
  Liver uptake of [^14C]cholesteryl oleate, change vs control: +60%
APOE*3Leiden mice [2]; 5 weeks
  Plasma ALAT, % Δ vs control: −79%
  Plasma SAA, % Δ vs control: −74%
APOE*3Leiden mice [2]; 5 weeks, 4 h-fasted
  Plasma ALAT: 41 ± 21 U/l
  Plasma SAA: 3 ± 0.3 µg/mL
  Plasma fibrinogen: 2.3 ± 0.7 mg/mL
APOE*3Leiden mice [2]; p<0.05
  Decrease of ALAT levels vs control: 79%
  Decrease of SAA levels vs control: 74%
